Results as given in patent US6632906B1, “Adhesives” (Strakan Limited, priority 1999, dated 2003).

Assays:
Assay type in all cases: physicochemical
[1] = Stability of drugs in Nitto adhesive
Protocol: The mixed solutions were coated onto PET film and heated at 80° C. for 20 minutes. The content of drug was determined immediately after preparation and after storage for 6 days at 60° C.

[2] = Saturation concentration of drugs in adhesives (crystallisation); design: key: No crystallisation. Drug is dissolved; ¦: Crystallisation; details: IPM 1.0 g
Description: Oestradiol (a hydrophobic drug) and piroxicam (a hydrophilic drug), were investigated to establish their saturation concentrations in the two adhesives. As before, formulations 3 in each of Tables 9 and 10 were used.

[3] = Stability of drug-containing patches, adhesive of the invention; details: 6 days at 60° C.
Protocol: The mixed solutions were coated onto PET film and heated at 80° C. for 20 minutes. The content of drug was determined both immediately after preparation and after storage at 6 days at 60° C.

[4] = Bakelite 180° peel strength test
Protocol: Peel strength was measured by coating each sample onto a PET strip 25 mm wide and 100 mm long and applying the strip to a bakelite plate. Then, a roller having a load of 300 g is rolled back and forth thereon to secure the sample to the plate. The sample is subsequently peeled off at an angle of 180° at a rate of 300 mm/min. to determine peel force. Unless otherwise specified, peel force is measured herein by this test.
In this Example, PET strips were 20 mm in width. In the adhesive of Example 1, adipic acid diamine was dissolved in methanol+water (19:1 by volume) to a concentration of 0.5%.
The Nitto Adhesive was dissolved in ethyl acetate. The cross-linking agent (aluminium tri-acetylacetonate) was dissolved in acetylacetone+ethylacetate (1:1 by volume) solution to a concentration of 0.5%.
IPM was used as plasticiser for both. Heating was at 80° C. for 20 minutes in both cases.

[5] = Nitto Adhesive 1.0 g, cross-linker 10 mg, drug 40
[6] = Nitto Adhesive 1.0 g, cross-linker 10 mg, drug 50
[7] = Nitto Adhesive 1.0 g, cross-linker 10 mg, drug 75
[8] = Adhesive B from Example 11, diethylene triamine 20 mg as cross-linker
[9] = allyl acetoacetate polymer of Example 9, 0.8 g of plasticiser, adipic acid diamine cross-linked

Row | Structure (SMILES) | Crystallisation [2, 5] | Crystallisation [2, 6] | Crystallisation [2, 7] | deterioration of drug content after storage [3] | Adhesion strength [4, 8] | Adhesion strength [4, 9] | other results
1 | CN1C(C(=O)Nc2ccccn2)=C(O)c2ccccc2S1(=O)=O [Piroxicam] | ¦ | ¦ | ¦ | no measurable deterioration |  |  | stability of drug ([1]; during the preparation process and after heating 60° C. for 6 days): stable; Crystallisation ([2]; Adhesive of invention 1.0 g, cross-linker 3.0 mg, drug 50): ¦; Crystallisation ([2]; Adhesive of invention 1.0 g, cross-linker 3.0 mg, drug 75): ¦
2 | C[C@]12CC[C@@H]3c4ccc(O)cc4CC[C@H]3[C@@H]1CC[C@@H]2O [oestradiol] | ¦ | ¦ | ¦ |  |  |  | Crystallisation ([2]; Adhesive of invention 1.0 g, cross-linker 3.0 mg, drug 120 mg): ¦; Crystallisation ([2]; Adhesive of invention 1.0 g, cross-linker 3.0 mg, drug 150 mg): ¦
3 | CCCCCCCC/C=C\CCCCCCCC(=O)OC [MO, methyl oleate] |  |  |  |  | 35 g/25 mm | 95 g/20 mm | 
4 | C=C1CC[C@H](O)C/C1=C/C=C1\CCC[C@]2(C)[C@@H]([C@H](C)/C=C/[C@H](C)C(C)C)CC[C@@H]12 [vitamin D2] |  |  |  | no measurable deterioration |  |  | decomposed further during the 6 day storage period ([1]; 6 days at 60° C.): 20%; decomposed during the preparation process ([1]; coated onto PET film, 80° C. for 20 minutes): ca. 30%
5 | CCCCCCCCCCCCCC(=O)OC(C)C [IPM, isopropyl myristate] |  |  |  |  | 30 g/25 mm | 80 g/20 mm | 
